Legend:
Format in all cases: in vivo
Impatiens = assay: Experiment 5: foliar application of LCO to bedding plants (Impatiens)
Text: This is a growth room study. Seeds of garden plant species were selected on the basis of seed-purchase popularity (Norseco, Montreal), grown in trays of Pro-Mix (NB. trademarked name) Seeding Medium, and at some size were transplanted into trays of 36 and 32 wells containing the same medium. Growth proceeded under lights in the growth room. Some 2 weeks before expected flowering, 16 young plants were sprayed with each of various levels of LCO leaving control plants untreated. The results are presented in Table 5A on bud formation and where possible opened flowers.

tomato crop = assay: Trial 3: summer field trial, foliar LCO on tomato yield; conditions: for advanced fruiting over control: single application
Experimental: An investigation was conducted to examine whether foliar applications of LCO led to increased yield in tomato crop production. To determine concentrations or strengths to be applicable, testing was conducted with a logarithmic increase in strength from 1 nanogram (ng) to 1000 ng/plant sprayed once, and on half, twice. The trial results are presented in the following FIGS. 11-13 and Tables 6 and 7. The parameter of interest was ripened fruit which was harvested 2 or 3 times a week, recording each time, both fruit weight and number of fruit per set of replicates. It was known that fruit arise from pollinated flowers and that an increase in the one leads to the other. FIG. 11 records, cumulative harvested (red) fruit per treatment. For the single LCO application it will be seen that the 10 and 100 ng/plant treatments have advanced fruiting by some 10 days over control (horizontal separation in weeks). That advance has allowed the plant to bear and ripen more fruit over the season for these treatments (see FIG. 11 note height over control and Tables 6 and 7 for actual weights and numbers harvested). Table 6 and FIG. 12 record harvested weight and numbers of ripened fruit over season and it can be seen that the average weight of the tomatoes is not different between treatments and control. Thus the increase in harvested weight was due to an increase in numbers harvested, in agreement with actual enumeration.

Tomato = assay: Experiment 6: foliar application of LCO at variable growth stages, field tomato; design: Fruit # % vs. control / % of weight vs. control: concentration or dose not given beside the values
Text: Tomato seedlings (6-leaf stage) were transplanted in farmland. The plants were watered on the day that they were transplanted and whenever the soil was very dry during the season. Fertilizer (20-20-20) was applied at 250 kg/ha to the tomato field before transplantation. All tomato plants were supported by sticks when they were heavily loaded with fruit. Fruit yield (in the table) was finally cumulated at the end of the season.

[1] = 1 ng LCO per plant, applied once
[2] = 1 ng LCO per plant, applied twice
[3] = 10 ng LCO per plant, applied once
[4] = 10 ng LCO per plant, applied twice
[5] = 100 ng LCO per plant, applied once
[6] = 100 ng LCO per plant, applied twice
[7] = 1000 ng LCO per plant, applied once
[8] = 1000 ng LCO per plant, applied twice
[9] = single application of 10 ng LCO/plant
[10] = LCO applied 10 + 20 + 30 + 40 + 50 DATP
[11] = LCO applied 10 + 20 + 30 + 40 DATP

## Lipo-chitooligosaccharides [LCO]
Impatiens; 20 ml/16 plants of 10^−7M LCO
  Total Number of Impatiens buds: 71
Impatiens; 20 ml/16 plants of 10^−8M LCO
  Total Number of Impatiens buds: 65
Impatiens; 20 ml/16 plants of 10^−9M LCO
  Total Number of Impatiens buds: 85
Impatiens; 50 ml/16 plants of 3 × 10^−8M LCO
  Total Number of Impatiens buds: 66
Tomato crop; 1 ng LCO per plant
  Increase in No. of Tomatoes from 1 to 2 applications: 21
  Yield Increase for 2nd Application: 0.00 Kg per plant
Tomato crop; [1]
  Cumulative Harvest to Sept 23. (24 plant Average): Not as good as Control
  Cumulative Yield (kg) to Sept 23. Total weight for 24 plants: 57.7200 kg
  Total No. of Tomatoes per treatment: 300
  Yield increase over Control: 0.0000 Kg per plant
Tomato crop; [2]
  Cumulative Harvest to Sept 23. (24 plant Average): Not as good as Control
  Cumulative Yield (kg) to Sept 23. Total weight for 24 plants: 63.8760 kg
  Total No. of Tomatoes per treatment: 321
Tomato crop; 10 ng LCO per plant
  Increase in No. of Tomatoes from 1 to 2 applications: 11
  Yield Increase for 2nd Application: 0.08 Kg per plant
Tomato crop; [3]
  Cumulative Harvest to Sept 23. (24 plant Average): 3.0093 Kg per plant
  Cumulative Yield (kg) to Sept 23. Total weight for 24 plants: 72.2240 kg
  Percent Yield inc. over Control: 17.7%
  Total No. of Tomatoes per treatment: 363
  Yield increase over Control: 0.4517 Kg per plant
Tomato crop; [4]
  Cumulative Harvest to Sept 23. (24 plant Average): 3.0905 Kg per plant
  Cumulative Yield (kg) to Sept 23. Total weight for 24 plants: 74.1720 kg
  Percent Yield inc. over Control: 12.6%
  Total No. of Tomatoes per treatment: 374
  Yield increase over Control: 0.3452 Kg per plant
Tomato crop; 100 ng LCO per plant
  Increase in No. of Tomatoes from 1 to 2 applications: −8
  Yield Increase for 2nd Application: 0.06 Kg per plant
Tomato crop; [5]
  Cumulative Harvest to Sept 23. (24 plant Average): 2.7280 Kg per plant
  Cumulative Yield (kg) to Sept 23. Total weight for 24 plants: 65.4720 kg
  Percent Yield inc. over Control: 6.7%
  Total No. of Tomatoes per treatment: 351
  Yield increase over Control: 0.1703 Kg per plant
Tomato crop; [6]
  Cumulative Harvest to Sept 23. (24 plant Average): 2.7917 Kg per plant
  Cumulative Yield (kg) to Sept 23. Total weight for 24 plants: 67.0000 kg
  Percent Yield inc. over Control: 1.7%
  Total No. of Tomatoes per treatment: 343
  Yield increase over Control: 0.0463 Kg per plant
Tomato crop; 1000 ng LCO per plant
  Increase in No. of Tomatoes from 1 to 2 applications: 35
  Yield Increase for 2nd Application: 0.35 Kg per plant
Tomato crop; [7]
  Cumulative Harvest to Sept 23. (24 plant Average): 2.6115 Kg per plant
  Cumulative Yield (kg) to Sept 23. Total weight for 24 plants: 62.6760 kg
  Percent Yield inc. over Control: 2.1%
  Total No. of Tomatoes per treatment: 326
  Yield increase over Control: 0.0538 Kg per plant
Tomato crop; [8]
  Cumulative Harvest to Sept 23. (24 plant Average): 2.9588 Kg per plant
  Cumulative Yield (kg) to Sept 23. Total weight for 24 plants: 71.0120 kg
  Percent Yield inc. over Control: 7.8%
  Total No. of Tomatoes per treatment: 361
  Yield increase over Control: 0.2135 Kg per plant
Tomato crop; [9]
  increase in numbers of tomatoes: ~20%
  yield increase over the season: 17%
Tomato crop; 10 ng/plant
  advanced fruiting over control: ~10 days
Tomato crop; 100 ng/plant
  advanced fruiting over control: ~10 days
Tomato; [10]
  % of weight vs. control: 27.8%
  Average Weight (g/fruit): 126.8 g/fruit
  Fruit # % vs. control: 38.41%
  Fruit on 24 plants: 1373a
  Weight (kg) per 24 plants: 174.07a kg
Tomato; [11]
  % of weight vs. control: 12.0%
  Average Weight (g/fruit): 128.0 g/fruit
  Fruit # % vs. control: 20.06%
  Fruit on 24 plants: 1191abc
  Weight (kg) per 24 plants: 152.50ab kg
Tomato; LCO applied 10 + 20 + 30 DATP
  % of weight vs. control: 18.9%
  Average Weight (g/fruit): 126.3 g/fruit
  Fruit # % vs. control: 29.23%
  Fruit on 24 plants: 1282ab
  Weight (kg) per 24 plants: 161.89ab kg
Tomato; LCO applied 10 + 20 DATP
  % of weight vs. control: 12.7%
  Average Weight (g/fruit): 136.4 g/fruit
  Fruit # % vs. control: 13.41%
  Fruit on 24 plants: 1125bc
  Weight (kg) per 24 plants: 153.43ab kg
Tomato; LCO applied 10 DATP (7/4)
  % of weight vs. control: 10.8%
  Average Weight (g/fruit): 118.2 g/fruit
  Fruit # % vs. control: 28.63%
  Fruit on 24 plants: 1276ab
  Weight (kg) per 24 plants: 150.88ab kg
Tomato; LCO applied 20 DATP (7/15)
  % of weight vs. control: 20.3%
  Average Weight (g/fruit): 130.0 g/fruit
  Fruit # % vs. control: 27.02%
  Fruit on 24 plants: 1260ab
  Weight (kg) per 24 plants: 163.78ab kg
Tomato; LCO applied 30 DATP (7/25)
  % of weight vs. control: 17.6%
  Average Weight (g/fruit): 133.5 g/fruit
  Fruit # % vs. control: 20.87%
  Fruit on 24 plants: 1199abc
  Weight (kg) per 24 plants: 160.11ab kg
Tomato; LCO applied 40 DATP (8/8)
  % of weight vs. control: 14.5%
  Average Weight (g/fruit): 118.3 g/fruit
  Fruit # % vs. control: 32.86%
  Fruit on 24 plants: 1318ab
  Weight (kg) per 24 plants: 155.89ab kg
Tomato; LCO applied 50 DATP (8/18)
  % of weight vs. control: 13.6%
  Average Weight (g/fruit): 138.7 g/fruit
  Fruit # % vs. control: 12.40%
  Fruit on 24 plants: 1115bc
  Weight (kg) per 24 plants: 154.62ab kg
Tomato; best of 9 treatments
  increased fruit number compared to untreated control: up to 38.4%
  increased total fruit weight compared to untreated control: up to 27.8%

— US20130244879A1, “USE OF LIPO-CHITOOLIGOSACCHARIDES TO INITIATE EARLY FLOWERING AND FRUIT DEVELOPMENT IN PLANTS AND RELATED METHODS AND COMPOSITIONS” (NOVOZYMES BIOLOGICALS HOLDING A/S, priority 2003, published 2013)
